Earlier results as cited in patent publication US20060030550A1, “Pharmaceutical formulations” (priority 2004, published 2006).

Assays:
[1] = preclinical testing
[2] = system: rhinoviruses
[3] = topically active steroid
[4] = R112 over placebo, recent study

Question: With `Oc1cccc(Nc2ncc(F)c(Nc3cccc(O)c3)n2)c1` [R112] as the compound, how does the “symptoms most closely associated with chronic nasal congestion (e.g. stuffy nose)” value (R112 over placebo) read?
Answer: Its value is “improved”.

Question: And the “absolute difference over placebo” value [4]?
Answer: The value was 9%.

Question: And the “relative improvement over placebo” value [4]?
Answer: Its value is “greater than 20%”.

Question: What about the “improvement from baseline measurements” value (baseline = prior to drug initiation) of the same compound?
Answer: The value was “up to 38%”.

Question: For `O=c1ccn([C@@H]2O[C@H](COP(=O)(O)OP(=O)(O)OP(=O)(O)OP(=O)(O)OC[C@H]3O[C@@H](n4ccc(=O)[nH]c4=O)[C@H](O)[C@@H]3O)[C@@H](O)[C@H]2O)c(=O)[nH]1` [diquafosol], which “secretions of natural tear components” value [1] is on record?
Answer: The value was “increased”.

Question: Which activity against rhinoviruses [2] does the source give for `Cc1cc(CCCOc2c(C)cc(-c3noc(C(F)(F)F)n3)cc2C)on1` [Pleconaril, 1,2,4-oxadiazole3-[3,5-Dimethyl-4-[3-(3-methyl-5-isoxazolyl)propoxy]phenyl]-5-(trifluoremethyl)] here?
Answer: Its activity against rhinoviruses is “active against rhinoviruses”.

Question: With `C[C@@H]1C[C@H]2[C@@H]3CCC4=CC(=O)C=C[C@]4(C)[C@@]3(Cl)[C@@H](O)C[C@]2(C)[C@@]1(OC(=O)c1ccco1)C(=O)CCl` [Mometasone Furoate] as the compound, how does the bioavailability [3] read?
Answer: Its bioavailability is “not readily bioavailable”.
